Data on 20 compounds can be found in the supplement of paper PMC4862054.

What all share (test): normalised viability (% of control), CellTiter-Blue; higher = more viable cells (about 100 = DMSO control)
Common to all, as to conditions: incubation time: 72 h
On the technique in general: Alamar Blue is a resazurin reagent that responds to reducing activity.

Test [1] deals with CAL-148. On the procedure: (§1)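 DSRT, CellTiter-Blue viability, 72 h incubation. Signal is normalised to DMSO and benzethonium chloride controls. Value is the normalised response at dose 8.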
The subject of test [2] is CAL-51. On the procedure: as §1
Test [3] concerns CAL-85-1. On the procedure:
as §1

The test system of test [4] is DU-4475. On the procedure: as §1
Test [5] concerns HDQ-P1. On the procedure: as §1
Test [6] deals with MDA-MB-453. On the procedure: as §1
The subject of test [7] is CAL-148. The procedure:
(§2)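 DSRT, CellTiter-Blue viability, 72 h incubation. Signal is normalised to DMSO and benzethonium chloride controls. Value is the normalised response at dose 6.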
The source holds these as a separate data set.

The test system of test [8] is CAL-51. On the procedure: as §2
The source holds these as a separate data set.

The test system of test [9] is CAL-85-1. On the procedure: as §2
The source holds these as a separate data set.

Test [10] has as its system DU-4475. The procedure:
as §2
The source holds these as a separate data set.

In test [11] the test system is HDQ-P1. On the procedure:
as §2
The source holds these as a separate data set.

Test [12] concerns MDA-MB-453. The procedure: as §2
The source holds these as a separate data set.

As to `CO[C@@]12[C@H](COC(N)=O)C3=C(C(=O)C(C)=C(N)C3=O)N1C[C@@H]1N[C@@H]12` [Mitomycin C] (3000 nM), the normalised viability in the test with CAL-148 [1] is 48.5%; in the test on CAL-51 [2], 102%; in the test on CAL-85-1 [3], 71.6%; with DU-4475 [4], 91.5%; in the test with HDQ-P1 [5], 85.2%; with MDA-MB-453 [6], 58.8%.

As for `Nc1ccn([C@@H]2O[C@H](CO)[C@@H](O)C2(F)F)c(=O)n1` [Gemcitabine] (300 nM), the normalised viability in the test on CAL-148 [1] worked out at 34.9%; in the test with CAL-51 [2], 15.7%; in the test with CAL-85-1 [3], 43.2%; with DU-4475 [4], 39.8%; in the test on HDQ-P1 [5], 82.1%; in the test on MDA-MB-453 [6], 44.1%.

As for `C/C(=C\c1csc(C)n1)[C@@H]1C[C@@H]2O[C@]2(C)CCC[C@H](C)[C@H](O)[C@@H](C)C(=O)C(C)(C)[C@@H](O)CC(=O)N1` [Ixabepilone] (300 nM), the normalised viability stood at 87.3% in the test with CAL-148 [1]; 117% with CAL-51 [2]; 76.5% in the test on CAL-85-1 [3]; 92.9% in the test on DU-4475 [4]; 81.6% with HDQ-P1 [5]; 89.8% with MDA-MB-453 [6].

With `Cn1cc(C2=C(c3cn(C4CCN(Cc5ccccn5)CC4)c4ccccc34)C(=O)NC2=O)c2ccccc21` [Enzastaurin] (3000 nM), the normalised viability in the test on CAL-148 [1] came out at 69%; with CAL-51 [2] it was 88.6%; in the test with CAL-85-1 [3] it was 85%; with DU-4475 [4], 87.3%; with HDQ-P1 [5] it was 89.8%; with MDA-MB-453 [6], 53.6%.

`CNC(=O)c1ccccc1Sc1ccc2c(/C=C/c3ccccn3)n[nH]c2c1` [Axitinib] (3000 nM): the normalised viability in the test with CAL-148 [1] was 46%; in the test on CAL-51 [2], 40.2%; in the test on CAL-85-1 [3], 65.5%; in the test on DU-4475 [4], 33.9%; with HDQ-P1 [5], 64.8%; in the test on MDA-MB-453 [6], 55.4%.

As for `CN(Cc1cnc2nc(N)nc(N)c2n1)c1ccc(C(=O)N[C@@H](CCC(=O)O)C(=O)O)cc1` [Methotrexate] (3000 nM), the normalised viability with CAL-148 [1] was determined as 56.3%; in the test on CAL-51 [2], 39.6%; in the test on CAL-85-1 [3] it was 57.7%; in the test with DU-4475 [4], 101%; in the test on HDQ-P1 [5], 82.7%; in the test on MDA-MB-453 [6] it was 91.4%.

`CC(O)(CS(=O)(=O)c1ccc(F)cc1)C(=O)Nc1ccc(C#N)c(C(F)(F)F)c1` (stereo not given) [Bicalutamide] (3000 nM): the normalised viability in the test on CAL-148 [1] came out at 103%; in the test with CAL-51 [2] it was 120%; in the test on CAL-85-1 [3], 101%; with DU-4475 [4], 103%; in the test with HDQ-P1 [5], 96.8%; in the test with MDA-MB-453 [6], 114%.

For `COc1cc(Nc2c(C#N)cnc3cc(OCCCN4CCN(C)CC4)c(OC)cc23)c(Cl)cc1Cl` [Bosutinib] (3000 nM), the normalised viability in the test with CAL-148 [1] turned out to be 39.8%; in the test on CAL-51 [2], 80.3%; in the test on CAL-85-1 [3], 54.3%; with DU-4475 [4] it was 98.6%; with HDQ-P1 [5], 44.2%; in the test on MDA-MB-453 [6], 50.1%.

Turning to `Cc1cc(Nc2nc(N[C@@H](C)c3ncc(F)cn3)ncc2Cl)[nH]n1` [AZD1480] (30 nM), the normalised viability with CAL-148 [7] is 103%; in the test on CAL-51 [8], 113%; in the test with CAL-85-1 [9], 91.3%; in the test on DU-4475 [10], 109%; with HDQ-P1 [11] it was 78.1%; in the test on MDA-MB-453 [12] it was 117%.

On to `C=CCN(/C=C1/C(=O)O[C@H](COC)[C@@]2(C)C1=C(O)C(=O)C1=C2[C@H](OC(C)=O)C[C@]2(C)C(=O)CC[C@@H]12)CC=C` [PX-866] (300 nM), for which the normalised viability worked out at 116% in the test with CAL-148 [7]; 110% in the test on CAL-51 [8]; 103% in the test on CAL-85-1 [9]; 93% in the test on DU-4475 [10]; 75.8% in the test with HDQ-P1 [11]; 112% with MDA-MB-453 [12].

For `CNC(=O)c1ccccc1Sc1ccc2c(/C=C/c3ccccn3)n[nH]c2c1` [Axitinib] (300 nM), the normalised viability amounted to 94% in the test on CAL-148 [7]; 96.1% in the test with CAL-51 [8]; 83.6% with CAL-85-1 [9]; 103% in the test with DU-4475 [10]; 40.1% in the test on HDQ-P1 [11]; 96.8% in the test on MDA-MB-453 [12].

Turning to `CC(=O)[C@]1(O)Cc2c(O)c3c(c(O)c2[C@@H](O[C@H]2C[C@H](N)[C@H](O)[C@H](C)O2)C1)C(=O)c1ccccc1C3=O` [Idarubicin] (30 nM), the normalised viability with CAL-148 [7] stood at 40.7%; in the test on CAL-51 [8], 31.1%; with CAL-85-1 [9], 89.9%; with DU-4475 [10] it was 50%; in the test with HDQ-P1 [11], 83.6%; in the test on MDA-MB-453 [12], 101%.

Take `Cn1cc(C2=C(c3cn(C4CCN(Cc5ccccn5)CC4)c4ccccc34)C(=O)NC2=O)c2ccccc21` [Enzastaurin] (300 nM): the normalised viability was 79.2% with CAL-148 [7]; 92.3% in the test with CAL-51 [8]; 90.2% in the test with CAL-85-1 [9]; 77.5% in the test with DU-4475 [10]; 45.9% with HDQ-P1 [11]; 80.6% with MDA-MB-453 [12].

Turning to `CN(Cc1cnc2nc(N)nc(N)c2n1)c1ccc(C(=O)N[C@@H](CCC(=O)O)C(=O)O)cc1` [Methotrexate] (300 nM), the normalised viability in the test with CAL-148 [7] stood at 66.8%; in the test on CAL-51 [8], 48.6%; in the test on CAL-85-1 [9], 68.7%; in the test with DU-4475 [10] it was 110%; with HDQ-P1 [11], 69%; in the test with MDA-MB-453 [12], 95.2%.

Take `C=CCn1c(=O)c2cnc(Nc3ccc(N4CCN(C)CC4)cc3)nc2n1-c1cccc(C(C)(C)O)n1` [MK1775] (300 nM): the normalised viability with CAL-148 [7] came to 45.3%; in the test on CAL-51 [8], 62.9%; in the test with CAL-85-1 [9], 66.6%; in the test with DU-4475 [10] it was 68.7%; with HDQ-P1 [11], 49.3%; in the test with MDA-MB-453 [12], 60%.

As to `COc1cc(Nc2c(C#N)cnc3cc(OCCCN4CCN(C)CC4)c(OC)cc23)c(Cl)cc1Cl` [Bosutinib] (300 nM), the normalised viability in the test on CAL-148 [7] is 82.2%; in the test with CAL-51 [8], 117%; in the test on CAL-85-1 [9], 108%; in the test with DU-4475 [10], 99.7%; with HDQ-P1 [11], 68.5%; in the test on MDA-MB-453 [12] it was 88.2%.

On to `CC(C)(C)NC(=O)[C@H]1CC[C@H]2[C@@H]3CC[C@H]4NC(=O)C=C[C@]4(C)[C@H]3CC[C@]12C` [Finasteride] (300 nM), for which the normalised viability turned out to be 106% with CAL-148 [7]; 105% in the test with CAL-51 [8]; 97.8% with CAL-85-1 [9]; 96.4% with DU-4475 [10]; 109% in the test on HDQ-P1 [11]; 112% with MDA-MB-453 [12].

Take `COc1c2occc2cc2ccc(=O)oc12` [Methoxsalen] (300 nM): the normalised viability with CAL-148 [7] amounted to 114%; in the test with CAL-51 [8], 104%; with CAL-85-1 [9], 107%; in the test with DU-4475 [10], 111%; in the test on HDQ-P1 [11] it was 88.7%; in the test on MDA-MB-453 [12], 99.9%.

With `COc1ccc(S(=O)(=O)Nc2cccnc2Nc2ccc(O)cc2)cc1` [ABT-751] (300 nM), the normalised viability came to 98.6% in the test with CAL-148 [7]; 94.3% in the test on CAL-51 [8]; 58.7% in the test on CAL-85-1 [9]; 80.7% in the test on DU-4475 [10]; 55.8% in the test with HDQ-P1 [11]; 39.5% in the test on MDA-MB-453 [12].

In the case of `CCNC(=O)CCC/C=C\C[C@@H]1[C@@H](/C=C/[C@@H](O)CCc2ccccc2)[C@H](O)C[C@@H]1O` [Bimatoprost] (165 nM), the normalised viability in the test with CAL-148 [7] is 94.6%; with CAL-51 [8] it was 116%; in the test on CAL-85-1 [9], 96.4%; in the test with DU-4475 [10], 97.6%; in the test with HDQ-P1 [11], 81.4%; in the test with MDA-MB-453 [12] it was 102%.
